Experiments:
Assay in all cases: PubChem AID 652108
Settings in all cases: mouse tail flick latency, kappa agonist-induced antinociception
[1] = tested on: 1 hour
[2] = tested on: 1 week
[3] = tested on: 24 hours

**Q.** For `COC(=O)c1cc(Br)cnc1N1CCC(NC2CCCCC2)C(O)C1` (configuration not stated), which tail flick latency [1] is on record?
**A.** 8.07 s

**Q.** And the tail flick latency ([1]; baseline latency at 0 min)?
**A.** 4.68 s

**Q.** What about the tail flick latency ([1]; latency at 30 min) of the same compound?
**A.** 6.04 s

**Q.** What about the tail flick latency ([1]; latency at 60 min) of the same compound?
**A.** 4.2 s

**Q.** And the tail flick latency [2]?
**A.** 12 s

**Q.** And the tail flick latency ([2]; baseline latency at 0 min)?
**A.** 3.47 s

**Q.** What about the tail flick latency ([2]; latency at 30 min) of the same compound?
**A.** 8.5 s

**Q.** And the tail flick latency ([2]; latency at 60 min)?
**A.** 3.25 s

**Q.** What about the tail flick latency [3] of the same compound?
**A.** 13.4 s

**Q.** What about the tail flick latency ([3]; baseline latency at 0 min) of the same compound?
**A.** 4.23 s

**Q.** What about the tail flick latency ([3]; latency at 30 min) of the same compound?
**A.** 9.11 s

**Q.** And the tail flick latency ([3]; latency at 60 min)?
**A.** 5.2 s

Source: PubChem BioAssay AID652108 (The Scripps Research Institute Molecular Screening Center, 2013)
